Where “and” joins values, the source holds several entries; their conditions need not be identical. Equal entries are not always repeated. Entries after “also recorded” stand apart in the source; their conditions may differ. Where a SMILES comes first, the peptide text is derived from it. Bridges are numbered along the chain shown (N, C = ends).
Experiments:
[1] = test system: L-type (Cav1.2) calcium channels; type: cell-based
[2] = test system: rat CCI pain model; conditions: in vivo
[3] = test system: GABABR-coupled Cav2.2 channels (human GABAB receptor R1 + R2 subunits and Cav2.2); type: cell-based; conditions: SEM
[4] = test system: rat PNL pain model; conditions: in vivo
[5] = test system: locomotor activity; conditions: rat, in vivo
[6] = test system: voltage-gated potassium channels in DRG neurons; type: cell-based, rat
[7] = test system: T-type (Cav3.2) calcium channels; type: cell-based
[8] = biological target: rat α3β2 nAChR (Rattus norvegicus, UniProt P04757+P12390); test: cell-based
[9] = test system: voltage-gated sodium channels in DRG neurons; type: cell-based, rat

rat α3β2 nAChR, sequence (P04757 26-499 limits assumed): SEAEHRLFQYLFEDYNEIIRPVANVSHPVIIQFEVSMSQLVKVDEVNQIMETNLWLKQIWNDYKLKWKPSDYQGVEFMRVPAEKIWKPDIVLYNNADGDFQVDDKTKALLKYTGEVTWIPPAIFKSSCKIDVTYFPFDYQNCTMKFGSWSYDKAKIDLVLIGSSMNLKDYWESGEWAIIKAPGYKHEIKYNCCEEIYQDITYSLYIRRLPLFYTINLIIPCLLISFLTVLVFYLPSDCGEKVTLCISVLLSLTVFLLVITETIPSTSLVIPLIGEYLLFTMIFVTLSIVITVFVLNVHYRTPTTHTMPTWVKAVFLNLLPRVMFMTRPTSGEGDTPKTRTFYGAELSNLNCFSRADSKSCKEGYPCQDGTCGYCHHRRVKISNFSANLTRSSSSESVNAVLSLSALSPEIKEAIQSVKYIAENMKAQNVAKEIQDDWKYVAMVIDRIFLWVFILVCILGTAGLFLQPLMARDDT
rat α3β2 nAChR, sequence (P12390 25-500 limits assumed): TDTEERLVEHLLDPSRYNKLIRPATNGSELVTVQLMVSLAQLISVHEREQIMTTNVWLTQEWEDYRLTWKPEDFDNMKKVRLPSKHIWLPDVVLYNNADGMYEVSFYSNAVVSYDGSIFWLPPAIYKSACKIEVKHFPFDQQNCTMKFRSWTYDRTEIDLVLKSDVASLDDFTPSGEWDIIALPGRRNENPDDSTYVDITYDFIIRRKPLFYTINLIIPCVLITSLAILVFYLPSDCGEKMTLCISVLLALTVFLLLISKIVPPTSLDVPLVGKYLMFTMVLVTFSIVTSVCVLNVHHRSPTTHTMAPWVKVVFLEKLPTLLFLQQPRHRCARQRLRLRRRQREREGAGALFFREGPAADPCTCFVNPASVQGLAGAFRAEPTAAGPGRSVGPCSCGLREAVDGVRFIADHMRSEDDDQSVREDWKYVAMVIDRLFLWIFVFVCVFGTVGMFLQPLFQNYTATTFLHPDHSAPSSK

| Compound | inhibition of L-type calcium channels (in words) [1] | increase in pain threshold [2] | pain threshold elevation percentage [2] | percent inhibition of IBa at GABABR-coupled Cav2.2 channels [3] [%] | elevation value of the pain threshold [4] [g] | pain threshold [4] | effect on locomotor activity (in words) [5] | inhibition of voltage-gated potassium channels (in words) [6] | inhibition of T-type calcium channels (in words) [7] | Hillslope [8] | IC50 [8] [nM] | inhibition of voltage-gated sodium channels (in words) [9] | increased mechanical pressure threshold (elevation value of pain threshold) [4] [g] |
| --- | --- | --- | --- | --- | --- | --- | --- | --- | --- | --- | --- | --- | --- |
| CC[C@H](C)[C@@H]1NC(=O)[C@@H]2CCCN2C(=O)[C@@H]2CSSC[C@H](NC(=O)[C@@H](N)CC(N)=O)C(=O)N[C@@H](CSSC[C@@H](C(N)=O)NC(=O)[C@H](CC(N)=O)NC(=O)[C@H](Cc3ccccc3)NC(=O)[C@H](CCCNC(=N)N)NC(=O)[C@H](CO)NC(=O)[C@H](Cc3ccc(O)cc3)NC(=O)[C@H](CC(=O)O)NC1=O)C(=O)N[C@@H](CCSC)C(=O)N[C@@H](Cc1ccccc1)C(=O)N[C@@H](Cc1c[nH]cn1)C(=O)N[C@@H]([C@@H](C)O)C(=O)N2 [Vt1.27] (H-NCCMFHTCPIDYSRFNC-NH2; disulfide 2-8, 3-17) | did not significantly inhibit | 67.2 g and 40.0 g | 56.4 ± 14.9% and 33.3 ± 15.3% | 19 ± 2 | 37.6 | 126.2 ± 9.16 g and 138.8 ± 23.6 g and 165.0 ± 21.4 g | did not affect locomotor activity | inactive; also recorded: did not significantly inhibit | did not significantly inhibit | -0.484 | 1160 | inactive; also recorded: did not significantly inhibit | – |
| Vc1.1 [reference compound] | – | – | 44.3 ± 9.1% and 26.1 ± 10.0% | – | 7.4 | – | – | – | – | – | – | – | 71.2 |
